The results in this text go back to patent US9840498B2, “Substituted quinazolin-4-one derivatives” (NOVARTIS AG, priority 2013, dated 2017).

Test [1] addresses human phosphoinositide-3 kinase (PI3K) alpha (Homo sapiens (Human), UniProt P42336). Description: PI3K-mediated Akt 1/2 (S473) phosphorylation in Rat-1 cells overexpressing PI3K alpha. The format is cell-based, rat cells expressing human PI3K alpha. Conditions: cellular assay, p-AKT(Ser473), read-out: Cell PI3K alpha IC50. As for the experimental part:
(§1) 2.1 Phosphoinositide-3 kinase (PI3K)-Mediated Akt 1/2 (S473) Phosphorylation in Rat-1 Cells
(§2) Rat-1 cells stably overexpressing a myristoylated form of the catalytic subunit of human phosphoinositide-3 kinase (PI3K) alpha, beta or delta were plated in 384-well plates at a density of 7500 (PI3K alpha), 6200 (PI3K beta), or 4000 (PI3K delta) cells in 30 ul complete growth medium (Dulbecco's modified Eagle's medium (DMEM high glucose) supplemented with 10% (v/v) fetal bovine serum, 1% (v/v) MEM non essential amino acids, 10 mM HEPES, 2 mM L-glutamine, 10 μg/mL puromycin and 1% (v/v) Penicillin/Streptomycin) and were incubated at […]/5% CO2/95% humidity for 24 h. Compounds were diluted in 384-well compound plates (compound master plates), to obtain 8-point serial dilutions for 40 test compounds in 90% DMSO, as well as 4 reference compounds plus 16 high controls and 16 low (inhibited) controls. Predilution plates were prepared by dispensing pipetting 250 nl of compound solutions into 384-well polypropylen plates (daugther plates), using a Hummingwell nanoliter dispenser. Compounds were prediluted by the addition of 49.75 ul complete growth medium. 10 ul of prediluted compound solution were transferred to the cell plate using a 384-well pipettor, resulting in a final DMSO concentration of 0.11%. Cells were incubated for 1 h at […]/5% CO2/95% humidity. The supernatant was removed, the cells were lysed in 20 ul of lysis buffer for AlphaScreen® SureFire® detection.
(§3) For detection of p-AKT(Ser473), the SureFire® p-Akt 1/2 (Ser473) Assay Kit (PerkinElmer, U.S.A.) was used. 5 ul of cell lysate was transferred to 384-well low volume Proxiplates for detection using a 384-well pipettor. Addition of AlphaScreen® SureFire® reagents was done according to the manufacturer's protocol. First, 5 ul of reaction buffer plus activation buffer mix containing AlphaScreen® acceptor beads was added, the plate was sealed, and incubated on a plate shaker for 2 hours at room temperature. Second, 2 ul of dilution buffer containing AlphaScreen® donor beads was added, and the plate was incubated on plate shaker as above for a further 2 hours. The plate was read on an AlphaScreen® compatible plate reader, using standard AlphaScreen® settings. Alternatively, p-AKT(Ser473) was detected with the CisBio HTRF Assay Kit: As positive control, 0.9 mM of 1-(3-(trifluoromethyl)-4-(piperazin-1-yl)phenyl)-8-(6-methoxypyridin-3-yl)-3-methyl-1H-imidazo[4,5-c]quinolin-2(3H)-one maleic acid salt in 90% (v/v) DMSO was added to the compound master plate. For compound testing, the cells were seeded at a density of 4000 (Rat-1_PI3Kdelta), 8000 (Rat-1_PI3Kalpha), or 6500 (Rat-1_PI3Kbeta) cells in 30 ul complete growth medium into 384-well plates, with a plastic surface promoting the adhesion of cells and their growth (assay plates) and were grown at 37° C./5% CO2/90% humidity for 24 h. Some 10 ul of the compound predilutions from the daughter plate were then transferred to the cells. After treatment with compound for 1 h, medium was removed and cells were lysed by the addition of 20 ul lysis buffer supplemented with blocking buffer. Detection of p-AKT(Ser473) was performed with the HTRF pAKT (Ser473) assay kit according to the manufacturer's instructions using 16 ul of cell lysate in a total detection volume of 20 ul.

For test [2], the target named is human phosphoinositide-3 kinase (PI3K) delta (Homo sapiens (Human), UniProt O00329). Briefly: PI3K-mediated Akt 1/2 (S473) phosphorylation in Rat-1 cells overexpressing PI3K delta. The format is cell-based. To be noted: cellular assay, p-AKT(Ser473), read-out: Cell PI3K delta IC50. The method, then: as §1, §2, §3
human phosphoinositide-3 kinase (PI3K) delta, sequence (O00329 whole entry): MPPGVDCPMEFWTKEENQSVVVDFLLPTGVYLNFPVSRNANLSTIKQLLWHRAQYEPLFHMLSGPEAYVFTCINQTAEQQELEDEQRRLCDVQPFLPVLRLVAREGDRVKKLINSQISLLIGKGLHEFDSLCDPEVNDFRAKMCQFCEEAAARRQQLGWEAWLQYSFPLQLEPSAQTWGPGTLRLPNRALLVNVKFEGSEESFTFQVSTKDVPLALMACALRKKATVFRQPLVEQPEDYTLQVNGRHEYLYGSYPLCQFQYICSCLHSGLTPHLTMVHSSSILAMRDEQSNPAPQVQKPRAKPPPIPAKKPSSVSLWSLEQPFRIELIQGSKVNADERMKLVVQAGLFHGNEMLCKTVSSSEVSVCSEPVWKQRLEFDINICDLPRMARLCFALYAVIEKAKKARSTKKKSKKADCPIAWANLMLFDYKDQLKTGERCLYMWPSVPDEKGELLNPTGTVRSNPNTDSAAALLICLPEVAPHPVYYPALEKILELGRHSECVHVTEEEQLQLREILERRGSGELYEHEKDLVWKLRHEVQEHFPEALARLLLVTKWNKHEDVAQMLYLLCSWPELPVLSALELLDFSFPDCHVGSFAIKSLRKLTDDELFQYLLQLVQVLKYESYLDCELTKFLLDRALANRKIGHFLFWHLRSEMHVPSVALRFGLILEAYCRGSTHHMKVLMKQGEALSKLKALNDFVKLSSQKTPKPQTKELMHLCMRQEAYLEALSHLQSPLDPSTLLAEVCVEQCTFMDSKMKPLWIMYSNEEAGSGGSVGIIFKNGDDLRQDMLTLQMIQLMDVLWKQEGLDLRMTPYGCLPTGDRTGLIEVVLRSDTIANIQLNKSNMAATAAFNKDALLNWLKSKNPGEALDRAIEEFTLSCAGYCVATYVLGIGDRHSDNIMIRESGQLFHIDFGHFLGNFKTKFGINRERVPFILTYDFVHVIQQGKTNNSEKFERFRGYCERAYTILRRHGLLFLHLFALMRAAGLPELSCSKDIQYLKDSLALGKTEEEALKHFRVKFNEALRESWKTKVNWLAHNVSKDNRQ
human phosphoinositide-3 kinase (PI3K) delta, sequence (Q63787 whole entry partner): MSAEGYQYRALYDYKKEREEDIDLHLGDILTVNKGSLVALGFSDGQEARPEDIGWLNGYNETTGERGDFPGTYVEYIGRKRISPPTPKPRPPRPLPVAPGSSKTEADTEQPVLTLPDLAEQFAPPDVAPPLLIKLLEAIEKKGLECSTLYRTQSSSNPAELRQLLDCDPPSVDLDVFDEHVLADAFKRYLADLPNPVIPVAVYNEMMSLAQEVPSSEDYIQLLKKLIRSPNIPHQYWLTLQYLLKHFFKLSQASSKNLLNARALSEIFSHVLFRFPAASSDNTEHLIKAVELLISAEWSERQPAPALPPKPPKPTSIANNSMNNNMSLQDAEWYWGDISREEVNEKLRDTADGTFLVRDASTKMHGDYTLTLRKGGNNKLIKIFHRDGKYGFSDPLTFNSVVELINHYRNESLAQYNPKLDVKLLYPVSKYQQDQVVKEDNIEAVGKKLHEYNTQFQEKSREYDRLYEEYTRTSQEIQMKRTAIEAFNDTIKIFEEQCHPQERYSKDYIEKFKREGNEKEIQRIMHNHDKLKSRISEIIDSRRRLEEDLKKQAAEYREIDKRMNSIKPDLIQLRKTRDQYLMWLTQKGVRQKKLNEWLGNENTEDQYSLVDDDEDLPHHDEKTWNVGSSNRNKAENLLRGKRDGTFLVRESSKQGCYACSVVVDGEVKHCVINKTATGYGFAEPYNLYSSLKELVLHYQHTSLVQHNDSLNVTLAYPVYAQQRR

human phosphoinositide-3 kinase (PI3K) alpha, sequence (P42336 whole entry): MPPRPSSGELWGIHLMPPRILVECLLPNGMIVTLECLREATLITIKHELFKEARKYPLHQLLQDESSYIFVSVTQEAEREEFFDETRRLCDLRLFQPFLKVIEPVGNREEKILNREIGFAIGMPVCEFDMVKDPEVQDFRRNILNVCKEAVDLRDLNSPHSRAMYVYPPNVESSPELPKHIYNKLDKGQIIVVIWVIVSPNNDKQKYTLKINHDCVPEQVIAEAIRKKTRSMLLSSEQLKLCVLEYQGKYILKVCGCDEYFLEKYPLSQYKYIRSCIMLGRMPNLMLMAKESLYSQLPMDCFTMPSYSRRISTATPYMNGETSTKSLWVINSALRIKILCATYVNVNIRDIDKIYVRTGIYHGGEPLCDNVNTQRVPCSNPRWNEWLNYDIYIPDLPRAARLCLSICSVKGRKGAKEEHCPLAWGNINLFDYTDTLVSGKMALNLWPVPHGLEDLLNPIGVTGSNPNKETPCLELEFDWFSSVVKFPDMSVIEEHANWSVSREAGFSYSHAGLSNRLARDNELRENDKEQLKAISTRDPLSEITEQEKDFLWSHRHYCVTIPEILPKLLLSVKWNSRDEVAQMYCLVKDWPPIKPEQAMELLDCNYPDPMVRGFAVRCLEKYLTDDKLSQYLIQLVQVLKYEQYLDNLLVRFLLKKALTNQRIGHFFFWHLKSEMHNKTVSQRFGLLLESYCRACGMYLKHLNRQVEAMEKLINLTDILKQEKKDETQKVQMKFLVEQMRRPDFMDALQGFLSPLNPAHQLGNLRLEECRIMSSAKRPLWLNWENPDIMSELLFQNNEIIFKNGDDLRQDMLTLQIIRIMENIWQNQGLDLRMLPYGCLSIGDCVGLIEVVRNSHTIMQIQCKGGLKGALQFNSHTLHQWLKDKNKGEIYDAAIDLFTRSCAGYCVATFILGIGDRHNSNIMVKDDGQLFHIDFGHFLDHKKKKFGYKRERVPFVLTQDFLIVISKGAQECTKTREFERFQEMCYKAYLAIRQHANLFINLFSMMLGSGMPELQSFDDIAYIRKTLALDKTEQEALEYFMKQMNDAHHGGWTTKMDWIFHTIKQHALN
human phosphoinositide-3 kinase (PI3K) alpha, sequence (Q63787 whole entry partner): as the sequence (Q63787 whole entry partner) above

In the case of `Cc1nc(N)nc(N2C[C@@H](O)C[C@H]2c2nc3ccc(F)c(-c4cnn(C)c4)c3c(=O)n2-c2ccccc2)c1C#N` [Example 1, 2-Amino-4-((2S,4S)-2-(6-fluoro-5-(1-methyl-1H-pyrazol-4-yl)-4-oxo-3-phenyl-3,4-dihydroquinazolin-2-yl)-4-hydroxypyrrolidin-1-yl)-6-methylpyrimidine-5-carbonitrile], the IC50 in test [1] was determined as 2200 nM; in test [2], 3 nM.

For the compound `Cn1cc(-c2cccc3nc([C@@H]4CCCN4c4ncnc(N)c4C#N)n(-c4ccccc4)c(=O)c23)cn1` [Example 2, (S)-4-Amino-6-(2-(5-(1-methyl-1H-pyrazol-4-yl)-4-oxo-3-phenyl-3,4-dihydroquinazolin-2-yl)pyrrolidin-1-yl)pyrimidine-5-carbonitrile], the IC50 in test [1] came to 1300 nM; in test [2], 3 nM.

`COc1ncc(-c2cccc3nc([C@@H]4CCCN4c4ncnc(N)c4C#N)n(-c4ccccc4)c(=O)c23)cn1` [Example 3, (S)-4-Amino-6-(2-(5-(2-methoxypyrimidin-5-yl)-4-oxo-3-phenyl-3,4-dihydroquinazolin-2-yl)pyrrolidin-1-yl)pyrimidine-5-carbonitrile]: the IC50 amounted to 6800 nM in test [1] and 11 nM in test [2].

Consider `COc1ncc(-c2cccc3nc([C@@H]4CCCN4c4nc(N)nc(C)c4C#N)n(-c4ccccc4)c(=O)c23)cn1` [Example 4, (S)-2-Amino-4-(2-(5-(2-methoxypyrimidin-5-yl)-4-oxo-3-phenyl-3,4-dihydroquinazolin-2-yl)pyrrolidin-1-yl)-6-methylpyrimidine-5-carbonitrile], for which the IC50 was 2800 nM in test [1] and under 3 nM in test [2].

As for `Cn1cc(-c2c(F)ccc3nc([C@@H]4CCCN4c4ncnc(N)c4C#N)n(-c4ccccc4)c(=O)c23)cn1` [Example 5, (S)-4-Amino-6-(2-(6-fluoro-5-(1-methyl-1H-pyrazol-4-yl)-4-oxo-3-phenyl-3,4-dihydroquinazolin-2-yl)pyrrolidin-1-yl)pyrimidine-5-carbonitrile], the IC50 in test [1] was found to be 3000 nM; in test [2] it was 7 nM.

Take `Cc1nc(N)nc(N2CCC[C@H]2c2nc3ccc(F)c(-c4cnn(C)c4)c3c(=O)n2-c2ccccc2)c1C#N` [Example 6, (S)-2-Amino-4-(2-(6-fluoro-5-(1-methyl-1H-pyrazol-4-yl)-4-oxo-3-phenyl-3,4-dihydroquinazolin-2-yl)pyrrolidin-1-yl)-6-methylpyrimidine-5-carbonitrile]: the IC50 amounted to 1400 nM in test [1] and 5 nM in test [2].

Consider `COc1ncc(-c2c(F)ccc3nc([C@@H]4C[C@H](O)CN4c4nc(N)nc(C)c4C#N)n(-c4ccccc4)c(=O)c23)cn1` [Example 7, 2-Amino-4-((2S,4S)-2-(6-fluoro-5-(2-methoxypyrimidin-5-yl)-4-oxo-3-phenyl-3,4-dihydroquinazolin-2-yl)-4-hydroxypyrrolidin-1-yl)-6-methylpyrimidine-5-carbonitrile], for which the IC50 was 4700 nM in test [1] and 9 nM in test [2].

As to `Cn1cc(-c2c(F)ccc3nc([C@@H]4C[C@H](O)CN4c4ncnc(N)c4C#N)n(-c4ccccc4)c(=O)c23)cn1` [Example 8, 4-Amino-6-((2S,4S)-2-(6-fluoro-5-(1-methyl-1H-pyrazol-4-yl)-4-oxo-3-phenyl-3,4-dihydroquinazolin-2-yl)-4-hydroxypyrrolidin-1-yl) pyrimidine-5-carbonitrile], the IC50 stood at 3200 nM in test [1] and 6 nM in test [2].

On to `COc1ncc(-c2c(F)ccc3nc([C@@H]4C[C@H](O)CN4c4nc(N)nc(C)c4C#N)n(-c4ccccc4)c(=O)c23)s1` [Example 9, 2-Amino-4-((2S,4S)-2-(6-fluoro-5-(2-methoxythiazol-5-yl)-4-oxo-3-phenyl-3,4-dihydroquinazolin-2-yl)-4-hydroxypyrrolidin-1-yl)-6-methylpyrimidine-5-carbonitrile], for which the IC50 was 670 nM in test [1] and under 3 nM in test [2].
